Assays:
pyrene-conjugated actin = molecular target: T1, pyrene-conjugated actin (Oryctolagus cuniculus, UniProt P68135); assay: Pyrene actin polymerization assay; format: biochemical; settings: for inhibition at 0.1 µM: 100 nM, read-out: Actin polymerization inhibition (%) 100 nM; for inhibition at 0.1 µM / inhibition at 1 µM: compared to vehicle control (DMSO); for inhibition at 1 µM: read-out: Actin polymerization inhibition (%) 1 μM; for IC50: mean ± SEM, triplicate
T1 construct: purchased Cytoskeleton, Denver, Colo
Experimental: An actin polymerization kit was used to assess the direct actin-binding activity of each analogue at two concentrations: 100 nM and 1 μM. This kit is based on the enhanced fluorescence of pyrene-conjugated actin that occurs during polymerization. When pyrene-G-actin (monomer) forms pyrene-F-actin, fluorescence is enhanced. The enhanced fluorescence is used to follow polymerization over time. Table 2 lists activities as the percentage of actin polymerization inhibition, compared to the negative vehicle control (DMSO), along with calculated IC50.
Pyrene-Actin Polymerization Assays. Actin polymerization assays were performed in accordance with the manufacturer's instructions (Cytoskeleton, Denver, Colo.). Briefly, […] final concentration of monomeric actin (1:10 pyrene labeled) was incubated on ice for 10 min with one of various concentrations of one of the latrunculin derivatives. Samples were then equilibrated 10 min in an ELISA plate reader (BioTek, VT), after which polymerization was induced by adding KCl, MgCl2, and ATP. Compounds 1-14 were tested at 0.1, 0.5, 1.0, and 10 μM. The IC50 for each compound was calculated using GraphPad Prism 5.0.
Pyrene-actin polymerization assays. Actin polymerization inhibitory activity is assessed using the Cytoskeleton Actin Polymerization kit (Cytoskeleton, Denver, Colo.). Briefly, […] (final concentration) of monomeric actin (1:10 pyrene labeled) is incubated on ice for 10 min with one of various concentrations of the test latrunculin compound. Samples are equilibrated 10 min in an ELISA plate reader (BioTek, VT), after which polymerization is induced by adding KCl, MgCl2, and ATP. Compounds are tested at 0.1, 0.5, 1.0, and 10 μM. The IC50 for each compound is calculated using GraphPad Prism 5.0.

HeLa cells = assay: HeLa cell G2/M assays; format: cell-based
Description: This assay measures HeLa cell proliferation, apoptosis, DNA content and condensation, cyclin B, and phosphor-histone H3.

PC-3 = assay: MTT proliferation assay, PC-3; format: cell-based, human; settings: for IC50: Homo sapiens, PC-3, MTT, 72 h, read-out: IC50 (μM) PC-3
Description: (§1) The antiproliferative and anti-invasive activities of compounds 1-14 were quantified using MTT and cell invasion assay kits, respectively. Latrunculin A (compound 1) was used as a positive control in all biological assays, because it is known to be an actin polymerization inhibitor, with cytotoxic, antiproliferative, and anti-invasive activities. The 3-[4,5-dimethylthiazol-2-yl]-2,5-diphenyl tetrazolium bromide (MTT) assay selectively detects living cells in a quantitative, colorimetric fashion, based on a living cell's ability to reduce MTT to an insoluble, purple formazan dye. The MTT assay is routinely used to assess cytotoxicity and proliferation inhibition activities. The antiproliferative activities of compounds 1-14 were measured against two human mammary gland adenocarcinoma cell lines, MCF7 and MDA-MB-231, and against human prostate cancer cells PC-3 at five different doses (0.1, 0.5, 1, 10, and 50 μM). While many of the semisynthetic latrunculins had similar activity levels, some had greater activity than compound 1. […] Although the MDA-MB-231 cells were more resistant than MCF7 against most latrunculin derivatives tested, compound 14 had potent activity against both cell lines.
(§2) MTT Proliferation Assay. The growth of MCF7, MDA-MB-231, and PC-3 cancer cell lines was measured using an MTT kit (TACS™, TREVIGEN®, Inc.). Exponentially growing cells were plated in a 96-well plate at a density of 8×10^3 cells per well, and allowed to attach for 24 h. Complete growth medium was then replaced with 100 μL of RPMI serum-free medium containing various concentrations (50, 10, 1, 0.5, 0.1 μM) of the particular test compound. Culture continued at 37° C. under 5% CO2. After 72 h of culture, the cells were treated with MTT solution (10 μL/well) at 37° C. for 4 h. The color reaction was stopped by adding solubilization/stop solution (100 μL/well). Incubation continued at 37° C. continued to completely dissolve the formazan dye product. Absorbance of the samples was determined at 570 nm with an ELISA plate reader (BioTek, VT). The number of cells per well was calculated against a standard curve that had been prepared by plating various concentrations of cells, as determined by hemocytometer, at the start of each experiment. IC50 for each compound was calculated using a nonlinear regression curve fit of log concentration versus the number of cells/well, using GraphPad Prism 5.0 (GraphPad Software, La Jolla, Calif.).

MCF7 = assay: MTT proliferation assay, MCF7; format: cell-based, human; settings: for IC50: Homo sapiens, MCF7, MTT, 72 h, mean ± SEM, read-out: IC50 (μM) MCF7
Description: as §1, §2

MDA-MB-231 = assay: MTT proliferation assay, MDA-MB-231; format: cell-based, human; settings: for IC50: Homo sapiens, MDA-MB-231, MTT, 72 h, mean ± SEM, read-out: IC50 (μM) MDA-MB-231
Description: as §1, §2

| Structure (SMILES) | inhibition at 0.1 µM (pyrene-conjugated actin) | inhibition at 1 µM (pyrene-conjugated actin) | IC50 (pyrene-conjugated actin) | times greater inhibition against G2-M-phase HeLa cells compared to nocodazole (HeLa cells; various G2_M assays) | IC50 (PC-3) | IC50 (MCF7) | IC50 (MDA-MB-231) | dose range of strong growth inhibition of HeLa cells at early interphase (HeLa cells; flow cytometry) | activity in G2_M assays compared with nocodazole (HeLa cells; less active than compound 11) | fold increase in activity against PC-3 versus compound 1 (PC-3; relative to compound 1) | factor of greater activity than compound 1, MCF7 proliferation assay (MCF7; assessed at 1 μM) | fold increase in activity against MCF7 versus compound 1 (MCF7; relative to compound 1) | factor of greater activity than compound 1, MDA-MB-231 proliferation assay (MDA-MB-231; assessed at 1 μM) |
| --- | --- | --- | --- | --- | --- | --- | --- | --- | --- | --- | --- | --- | --- |
| COc1ccc(CC(=O)N2C(=O)SC[C@H]2[C@@]2(OC)C[C@H]3C[C@@H](CC[C@H](C)/C=C\C=C\CC/C(C)=C\C(=O)O3)O2)cc1 [Compound 11, 17-O-Methyl-N-(7′-methoxyphenylacetyl)latrunculin A] | 0% | 13% | > 10000 nM | 3.5-51.0 times | 19.8 µM | 15.4 ± 1.21 µM | 26.2 ± 3.91 µM |  |  |  |  |  |  |
| C/C1=C/C(=O)O[C@@H]2C[C@@H](CC[C@H](C)/C=C\C=C\CC1)O[C@@](O)([C@@H]1CSC(=O)N1CO)C2 [Compound 14, N-Hydroxymethyllatrunculin A] | 35% | 90% | 210 ± 54 nM |  | 0.36 µM | 0.12 ± 0.01 µM | 2.99 ± 0.15 µM | 0.04 to 1.25 µM | greater activity than did nocodazole | 10.8 fold | 4 | 4.0 fold | 1.4 |

Source: US20110136880A1, “Latrunculin-Based Macrolides and Their Uses” (priority 2009, published 2011)
